Laboratory results as given in patent US20260345517A1, “DOSAGE REGIMENS FOR TREATING STARGARDT DISEASE” (Alkeus Pharmaceuticals, Inc., priority 2024, published 2026).

Experiments:
[1] = TEASE-3: plasma gildeuretinol (replacement of plasma vitamin A); type: in vivo, human; details: 14 mg daily, after the first two months, all three participants
Procedure: The tolerability and effects of gildeuretinol acetate in Stargardt Disease (Clinical trial group 3 also known as TEASE-3) study was an open-label, multicenter, case control study designed to evaluate the efficacy and safety of gildeuretinol acetate on the progression of Stargardt disease in asymptomatic individuals. The trial was conducted at multiple sites in the United States.
To assess the safety and efficacy of gildeuretinol acetate in preventing vision loss in asymptomatic individuals, gildeuretinol acetate 14 mg capsules was administered to individuals showing early signs of retinal damage while maintaining approximately 20/20 vision and no subjective loss of vision. […] Based on the above family history and clinical observations, the individuals were likely to develop retinal lesions, loss of photoreceptors, drops in retinal sensitivity, loss of visual acuity, indicating the onset of symptoms, i.e. a progression to the symptomatic phase, including vision loss within two years, mirroring the progression observed in their older siblings.
Patients received gildeuretinol acetate 14 mg capsules, to be taken orally once daily. Trial visits occurred every 6 months approximately following screening and treatment start visits.

[2] = Open-label multiple dose pharmacokinetic study in healthy volunteers (percentage of deuterated vitamin A in plasma, LC/MS); type: in vivo, human; details: fasting
Procedure: Study Design: This was an open-label, non-randomized, multiple dose study in healthy volunteers aged 21 to 70 years of age (inclusion criteria). Subjects who met all entrance criteria at screening were invited to receive the study medication. There were six treatment arms: 2 mg/day, 3.5 mg/day, 5 mg/day, 7 mg/day, 10 mg/day and 14 mg/day gildeuretinol acetate. For the four lower dose groups, the dose regimen was one capsule per day, orally, to be taken at home, preferably in the evening unless a different time was preferred by the subject. For the two highest doses, the dose regimen was two capsules per day, one in the morning and one in the evening, although subjects with a preference to take both capsules at once were offered to do so. After taking the 1st dose at the study site, subjects were invited to return two and four weeks after starting the treatment.
The clinical staff made periodic calls to monitor adverse events and ensure subject compliance. In addition, a text message was sent daily to remind subjects to take their medication. Subjects were instructed to avoid foods that contain large amounts of vitamin A (such as liver-based products), including supplements containing vitamin A, and to report their vitamin A intake by answering a daily text message diary. Fruits and vegetables were permitted without restriction.
Deuterated retinol (gildeuretinol) (“D3”) and non-deuterated retinol (“Do”) and other vitamin A metabolites were measured to calculate the percentage of deuterated vitamin A in plasma. For all treatment groups, plasma samples were collected at baseline, 14±1 days (“2 weeks”) and 28±1 days (“4 weeks”) after initiation of treatment. Blood samples were usually collected following at least 10 hours of fasting (including last gildeuretinol acetate intake), preferably in the morning. For the 7 mg/day and the 14 mg/day groups only, after the first and last dose, blood samples were collected every 4 hours for 24 hours. A liquid chromatography/mass spectrometry assay was used to measure the metabolite levels.
Table 2 provides % D3 Retinol (gildeuretinol, i.e. the percentage of deuterated retinol (gildeuretinol) over total retinol (as deuterated+non-deuterated) in plasma measured 12-24 hours following gildeuretinol acetate intake.
Pharmacokinetic Results (integrated levels over 24 hours post dosing): total vitamin A in plasma, both deuterated (gildeuretinol) and non-deuterated (retinol), was measured every 4 hours following administration of 7 mg or 14 mg at the first dose, and following administration of the 28th dose (4 weeks of daily treatment). The area under the curve (AUC) was calculated and the % deuterated % D3 of total vitamin A (as retinol and gildeuretinol) was computed as an average over 24 hours.

## CC1=C(/C=C/C(C)=C/C=C/C(C)=C/CO)C(C)(C)CCC1 [gildeuretinol, C20D3-retinol]
[1]
  replacement of plasma vitamin A (retinol + gildeuretinol) with gildeuretinol: 80%
[2]; 2 mg/day, after 2 weeks of treatment
  % gildeuretinol over retinol + gildeuretinol in plasma: 27%
[2]; 2 mg/day, after 4 weeks of treatment
  % gildeuretinol over retinol + gildeuretinol in plasma: 31%
[2]; 3.5 mg/day, after 2 weeks of treatment
  % gildeuretinol over retinol + gildeuretinol in plasma: 39%
[2]; 3.5 mg/day, after 4 weeks of treatment
  % gildeuretinol over retinol + gildeuretinol in plasma: 46%
[2]; 5 mg/day, after 2 weeks of treatment
  % gildeuretinol over retinol + gildeuretinol in plasma: 53%
[2]; 5 mg/day, after 4 weeks of treatment
  % gildeuretinol over retinol + gildeuretinol in plasma: 51%
[2]; 7 mg/day, 24 hours post 1st dose
  % gildeuretinol over retinol + gildeuretinol in plasma: 27%
[2]; 7 mg/day, after 2 weeks of treatment
  % gildeuretinol over retinol + gildeuretinol in plasma: 55%
[2]; 7 mg/day, after 4 weeks of treatment
  % gildeuretinol over retinol + gildeuretinol in plasma: 63%
[2]; 10 mg/day, after 2 weeks of treatment
  % gildeuretinol over retinol + gildeuretinol in plasma: 66%
[2]; 10 mg/day, after 4 weeks of treatment
  % gildeuretinol over retinol + gildeuretinol in plasma: 72%
[2]; 14 mg/day, 24 hours post 1st dose
  % gildeuretinol over retinol + gildeuretinol in plasma: 41%
[2]; 14 mg/day, after 2 weeks of treatment
  % gildeuretinol over retinol + gildeuretinol in plasma: 64%
[2]; 14 mg/day, after 4 weeks of treatment
  % gildeuretinol over retinol + gildeuretinol in plasma: 79%
